Format in all cases: cell-based
Assay [1] has as its system ERK phosphorylation. The assay can be described thus: ERK phosphorylation (pERK) in A375 cells.
For assay [2], the system named is A375 cells. The assay can be described thus: A375 cell growth (GI50). The settings on record: Homo sapiens, A-375, at 96 hr.
Assay [3] relates to ERK phosphorylation. The assay can be described thus: Western blot of ERK phosphorylation in A375 cells expressing NRAS^Q61K. The settings on record: 24 hours. On the technique in general: Immunoblotting shows a protein as a band on a membrane.
Assay [4] has as its target BRAF V600E (Homo sapiens, UniProt P15056, V600E). Put plainly: Western blot of engineered HEK-293T cells expressing BRAF V600E. The note with it: lentivirus expression.
Assay [5] concerns the target T1, BRAF class III mutant G466V (Homo sapiens, UniProt P15056, G466V).
T1 construct: host or cells: HEK-293T, lentiviral expression
The assay can be described thus: Western blot of engineered HEK-293T cells expressing class III mutant G466V. The settings on record: lentivirus expression.

In assay [6] the test system is A375-NRAS^Q61K cells. The assay can be described thus: CellTiter-Glo growth inhibition assay, A375-NRAS^Q61K cells. The note with it: 96 hr, mean of at least n = 3. As for the experimental part: A375-NRAS^Q61K cells (harboring BRAF homozygous V600E mutation and NRAS homozygous Q61K mutation) were purchased from ATCC. DMEM Medium (without phenol red and supplemented with L-glutamine) was purchased from Corning (Corning, NY, USA). CellTiter-Glo® 2.0 Assay was purchased from Promega (Madison, WI, USA). Cell culture flasks and 384-well microplates were acquired from VWR (Radnor, PA, USA) or Corning (Corning, NY, USA).
A375-NRAS^Q61K cell viability was determined based on quantification of ATP using CellTiter-Glo® 2.0 luminescent Assay kit, which signals the presence of metabolically-active cells. Briefly, test compound was added to 384-well plates at a top concentration of 10 μM with 14 points, half log titration in duplicates. A375-NRAS^Q61K cells were seeded into the 384-well plates in DMEM medium containing 10% FBS at a cell density of 250 cells per well. Cells treated in the absence of the test compound were the negative control, normalized to 100% viability, and cells treated in the absence of CellTiter-Glo® 2.0 were the positive control, normalized to 0% viability. A375 cells were incubated at 37° C. with 5% CO2 for 96 hr. CellTiter-Glo reagent was then added to the cells and Luminescence was acquired on EnVision™ Multilabel Reader (PerkinElmer, Santa Clara, CA, USA).

Assay [7] concerns the target T2, BRAF (wild type) (Homo sapiens, UniProt P15056).
T2 construct: host or cells: JURKAT
Put plainly: Global proteomics profiling, JURKAT cells. The settings on record: 300 nM, 24 hours. On the procedure: (§1) Each cell line was treated in duplicate with either DMSO or Compound 157 (final concentration 300 nM) for 24 hours in an incubator at 37° C. with 5% CO2. After the 24-hour incubation, cells were harvested, washed twice with PBS, and snap frozen in liquid nitrogen. Samples were re-suspended in lysis buffer [8 M urea, 50 mM HEPES (pH 8.5), 50 mM NaCl, 1× protease inhibitor cocktail] and lysed by sonication at 4° C. with 85% amplitude in a pulse setting with 30 seconds on and 30 seconds off for a total sonication time of 5 minutes. Lysates were centrifuged at maximum speed for 10 minutes at 4° C. and the supernatant collected, reduced for 1 hour at room temperature with 5 mM TCEP, and the cysteine residues were then alkylated with 15 mM iodoacetamide (room temperature, in dark, 30 minutes). Protein content was extracted by methanol-chloroform precipitation and subsequent ice-cold acetone washes. Protein pellets were resuspended in 8 M urea, 50 mM HEPES (pH 8.5) buffer and protein concentrations were measured by BCA assay. […]
(§2) For peptide tandem mass tag (TMT) labeling, 100 μg of peptides per sample was prepared at […] concentration in 200 mM HEPES (pH 8.5), 30% acetonitrile (ACN) and each the specific TMT reagent. […] TMT reporter ion intensities were quantified by extracting the signal-to-noise ratio for each. […]

Assay [8] concerns the target T3, ARAF (Homo sapiens, UniProt P10398). Put plainly: Global proteomics profiling, A375 cells. Also on record: endogenous in cells; host or cells: A375 (A7.2). The note with it: 300 nM, 24 hours. On the procedure:
as §1, §2

For assay [9], the target named is T3, ARAF. Put plainly: Global proteomics profiling, JURKAT cells. Also on record: endogenous in cells; host or cells: JURKAT, ATCC TIB-152 (A11.2). The note with it: 300 nM, 24 hours. As for the experimental part:
as §1, §2

T3 sequence (P10398 whole entry): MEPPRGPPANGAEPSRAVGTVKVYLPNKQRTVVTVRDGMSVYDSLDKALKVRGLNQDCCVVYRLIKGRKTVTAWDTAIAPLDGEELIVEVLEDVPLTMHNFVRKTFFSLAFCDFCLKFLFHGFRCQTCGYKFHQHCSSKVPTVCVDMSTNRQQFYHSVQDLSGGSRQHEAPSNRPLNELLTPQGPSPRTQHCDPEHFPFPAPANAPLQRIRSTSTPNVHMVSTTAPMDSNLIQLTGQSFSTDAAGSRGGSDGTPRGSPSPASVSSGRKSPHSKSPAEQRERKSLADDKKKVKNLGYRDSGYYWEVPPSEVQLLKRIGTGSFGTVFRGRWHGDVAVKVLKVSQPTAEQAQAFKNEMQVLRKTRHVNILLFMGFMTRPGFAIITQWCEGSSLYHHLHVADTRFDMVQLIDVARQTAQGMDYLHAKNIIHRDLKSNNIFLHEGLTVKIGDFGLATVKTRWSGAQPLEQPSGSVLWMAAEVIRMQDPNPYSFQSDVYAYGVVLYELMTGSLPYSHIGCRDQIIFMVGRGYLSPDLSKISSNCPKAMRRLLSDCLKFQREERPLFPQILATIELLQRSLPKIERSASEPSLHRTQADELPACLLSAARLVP
Chain of BRAF V600E (P15056 whole entry V600E): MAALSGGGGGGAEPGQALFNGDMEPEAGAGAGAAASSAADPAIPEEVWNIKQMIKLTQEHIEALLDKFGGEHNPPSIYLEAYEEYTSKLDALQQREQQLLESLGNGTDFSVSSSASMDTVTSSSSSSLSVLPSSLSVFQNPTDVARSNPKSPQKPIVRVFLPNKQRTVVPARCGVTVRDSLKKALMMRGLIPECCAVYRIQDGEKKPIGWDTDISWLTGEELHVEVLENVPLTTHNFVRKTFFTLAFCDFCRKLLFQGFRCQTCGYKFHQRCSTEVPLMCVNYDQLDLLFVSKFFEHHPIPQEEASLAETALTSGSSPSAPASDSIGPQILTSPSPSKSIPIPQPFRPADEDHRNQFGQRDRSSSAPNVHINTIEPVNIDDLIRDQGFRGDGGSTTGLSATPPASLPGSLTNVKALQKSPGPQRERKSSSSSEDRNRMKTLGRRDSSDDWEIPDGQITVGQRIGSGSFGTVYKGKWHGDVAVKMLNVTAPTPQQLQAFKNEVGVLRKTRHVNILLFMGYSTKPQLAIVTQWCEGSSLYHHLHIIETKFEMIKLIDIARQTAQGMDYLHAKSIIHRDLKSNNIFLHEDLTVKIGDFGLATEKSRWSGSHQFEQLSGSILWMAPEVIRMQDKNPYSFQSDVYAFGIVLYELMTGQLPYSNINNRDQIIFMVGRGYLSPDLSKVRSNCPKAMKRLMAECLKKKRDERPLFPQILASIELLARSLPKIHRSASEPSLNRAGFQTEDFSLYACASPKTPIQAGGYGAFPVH
T2 sequence (P15056 whole entry): as the sequence (P15056 whole entry V600E) above, with E600V counted along it
T1 sequence (P15056 whole entry G466V): as the sequence (P15056 whole entry V600E) above, with G466V, E600V counted along it

The term GI50 denotes the concentration that inhibits growth by half. A low value points to greater sensitivity of the cells. Take `CCN(C)S(=O)(=O)Nc1ccc(F)c(Oc2ccc3ncn([C@H]4COC5(CCN(C(=O)CC6(O)CCN(c7cc8c(cc7F)c(N7CCC(=O)NC7=O)nn8C)CC6)CC5)C4)c(=O)c3c2)c1C#N` [Compound 157, (3R)-3-[6-[2-cyano-3-[[ethyl(methyl)sulfamoyl]amino]-6-fluorophenoxy]-4-oxoquinazolin-3-yl]-8-[2-[1-[3-(2,4-dioxo-1,3-diazinan-1-yl)-5-fluoro-1-methylindazol-6-yl]-4-hydroxypiperidin-4-yl]acetyl]-1-oxa-8-azaspiro[4.5]decane]: the “ERK phosphorylation by western blot” value in [1] is “significantly drops off”. The GI50 was determined as 94 nM in assay [2] and 55 nM in [6]. In assay [3] (with 1 nM trametinib), the “ERK phosphorylation, in combination with trametinib” value is recorded as “completely suppressed”. The “ERK phosphorylation, alone” value in assay [3] (without trametinib) is recorded as “can suppress MAPK signaling”. Further, the “degradation of BRAF V600E” value in [4] was “capable of degrading”. Also, the “degradation of class III mutant G466V” value in assay [5] is reported as “capable of degrading”. Moreover, the “BRAF protein level change” value in [7] is “unchanged”. For the same compound, the entries for the “ARAF protein level change” value in assay [8] and in [9] were “remain largely unchanged” and “unchanged”, respectively.

(Values after patent US12486253B2, “Therapeutics for the degradation of mutant BRAF” (C4 THERAPEUTICS, INC., priority 2021, dated 2025).)
